Literature values in patent US20140322324A1, “Composition For The Treatment Of Bacterial Infections” (priority 2011, published 2014).

System: Staphylococcus aureus (ATCC #14154 and #14775)
Details: two strains of Staphylococcus aureus (ATCC #14154 and #14775); for the combination: concentration of each

CCCCCCCCCCCC(=O)OCC(O)CO (stereo not shown) [monolaurin]
bactericidal concentration in culture: mirrored origanum oil
